Like-named read-outs stand apart in the source and are kept apart here.
What was measured:
Type in all cases: in vivo
[1] = tested on: Candidatus ‘Liberibacter asiaticus’; conditions: for effect on bacteria levels during the evaluation period: 1 μM spray every 15 days for 6 months, 10 HLB infected citrus plants, FIG. 5
[2] = tested on: Alternaria solani; test: Control of disease in tomato plants inoculated with Alternaria solani; conditions: 1 μM spray every 15 days for 3 months; for percentage of mortality due to disease: mortality at 3 months
Method: (§1) In order to evaluate the effect of the brassinosteroid analogue (25R)-3-hydroxy-C-homo-11-oxa-5-espirostan-12-one and a natural brassinosteroid (brassinolide), on the control of other plant diseases, experiments were conducted with tobacco and tomato plants inoculated with Phytophthora parasitica and Alternaria solani, respectively. Both the natural brassinosteroid as the analogue were applied by spraying at a concentration of 1 μM every 15 days for 3 months. The mortality rate was determined at 3 months. […] Hundred plants were used for each treatment. Untreated plants were used as controls.

[3] = tested on: Phytophthora parasitica; test: Control of disease in tobacco plants inoculated with Phytophthora parasitica; conditions: 1 μM spray every 15 days for 3 months; for percentage of mortality due to disease: mortality at 3 months
Method: as §1

[4] = tested on: genes related to defense against diseases of citrus plants; test: Relative expression of defense-related genes in citrus plants by real-time quantitative PCR; conditions: Citrus sinensis, 20 μM spray
Method: Citrus plants (Citrus sinensis) were treated with the brassinosteroid analogue (25R)-3-hydroxy-C-homo-11-oxa-5-espirostan-12-one at 20 μM (Iglesias et al. (1998) Synthetic Communications 28: 75-81). Leaves from five plants were collected at 0, 1, 5, 10, 24 and 48 hours after spray application. Total RNA was extracted from leaves using the RNeasy kit (Qiagen, Valencia, Calif.) according to manufacturer's instructions, which includes a DNase treatment. The cDNAs were synthesized by using oligo-dT primer and reverse transcription kit SuperScript III (Invitrogen, Carlsbad, Calif.) according to manufacturer's instructions. The real-time quantitative PCR was performed using a RotorGene 3000 PCR machine (Corbett, Australia) and QuantiTect SYBR Green PCR kit (Qiagen). The reaction conditions in real-time PCR were: an initial denaturation step at 95° C. for 15 min. followed by denaturation at 95° C. for 15 s, an alignment step for 30 s at 60° C. and an extension step for 30 s at 72° C. for 40 cycles. The analysis was carried out using the RotorGene 3000 software (Corbett, Australia) and five replicates were used for each sample. Experiments were repeated twice.

[5] = tested on: genes related to the natural defense mechanism of plants against diseases; test: Identification of new defense genes activated in treated citrus plants by SuperSAGE; conditions: Citrus sinensis, 20 μM spray, leaves 1-48 hours, FIG. 2
Method: Citrus plants (Citrus sinensis) were treated with the brassinosteroid analogue (25R)-3-hydroxy-C-homo-11-oxa-5-espirostan-12-one at 20 μM. Leaves from five plants were collected at 1, 5, 10, 24 and 48 hours after spray application. Total RNA was extracted from leaves using the RNeasy kit (Qiagen, Valencia, Calif.) according to manufacturer's instructions. The cDNAs were synthesized by using biotinylated oligo-dT primer and reverse transcription kit SuperScript III (Invitrogen, Carlsbad, Calif.) according to manufacturer's instructions. Samples of five citrus plants treated with water and collected during the times listed above were used as control. The identification and characterization of new genes was performed by the construction of two cDNA libraries by the technique of SuperSAGE (Matsumura et al. (2003) PNAS 100: 15718-15723). The control library was the mixture of leaves of plants treated with water at different times and target sample was the mixture of citrus plant leaves treated with the analogue at different times. The new genes related to plant response to the HLB, activated by application of brassinosteroid analogue, were isolated, sequenced and analyzed.

[6] = tested on: Candidatus ‘Liberibacter asiaticus’; conditions: adult plants, natural conditions, 20 mM spray every 15 days, one year, FIG. 3B
[7] = tested on: Candidatus ‘Liberibacter asiaticus’; conditions: HLB infected Citrus sinensis treated for one year, FIG. 4A
[8] = tested on: Candidatus ‘Liberibacter asiaticus’; conditions: 1 μM spray twice a month, area with HLB plants and Diaphorina citri, FIG. 7
[9] = greenhouse, Citrus sinensis with HLB, 20 μM spray every 15 days, 6 months, FIG. 3A

SMILES: CC(C)[C@H](C)[C@@H](O)[C@H](O)[C@@H](C)[C@H]1CC[C@H]2[C@@H]3COC(=O)[C@H]4C[C@H](O)[C@H](O)C[C@]4(C)[C@H]3CC[C@]12C [brassinolide, reference compound]
- effect on bacteria levels during the evaluation period [1]: significant reduction in bacteria levels
- effect on incidence of disease [2]: marked effect in reducing the incidence of diseases
- percentage of mortality due to disease [2]: 12 percentage
- effect on incidence of disease [3]: marked effect in reducing the incidence of diseases
- percentage of mortality due to disease [3]: 13 percentage

SMILES: C[C@@H]1CC[C@@]2(OC1)O[C@H]1C[C@H]3[C@@H]4CC[C@H]5CC(O)CC[C@]5(C)[C@H]4OC(=O)C[C@]3(C)[C@H]1[C@@H]2C (stereo partly drawn) [brassinosteroid analogue, (25R)-3-hydroxy-C-homo-11-oxa-5-espirostan-12-one]
- time of highest expression of the rest of the genes ([4]; after application): 5 h
- time of highest level of expression of allene oxide synthase gene ([4]; after application): 24 h
- activation of all analyzed genes (chitinase, β-1,3-glucanase, glutathione peroxidase, phenylalanine-ammonia lyase, superoxide dismutase, allene oxide synthase) ([4]; leaves 0-48 hours, FIG. 1): activated
- activation of new genes identified by SuperSAGE [5]: simultaneously activates genes related to hypersensitive response, salicylic acid and jasmonic acid/ethylene
- Absolute concentration of the bacterium after 6 months of treatment ([1]; 0.001 μM, spray every 15 days for 6 months): 522 Copies of the bacteria by reaction
- Absolute concentration of the bacterium after 6 months of treatment ([1]; 0.01 μM, spray every 15 days for 6 months): 29 Copies of the bacteria by reaction
- effect on bacteria levels during the evaluation period [1]: significant reduction in bacteria levels
- levels of bacteria, application two times a month and weekly compared with a single application per month ([1]; 1 μM, FIG. 6): significantly reduced levels of bacteria, more early
- Absolute concentration of the bacterium after 6 months of treatment ([1]; 1 μM, spray every 15 days for 6 months): 1 Copies of the bacteria by reaction
- Absolute concentration of the bacterium after 6 months of treatment ([1]; 5 μM, spray every 15 days for 6 months): 0 Copies of the bacteria by reaction
- Absolute concentration of the bacterium after 6 months of treatment ([1]; 10 μM, spray every 15 days for 6 months): 0 Copies of the bacteria by reaction
- Absolute concentration of the bacterium after 6 months of treatment ([1]; 20 μM, spray every 15 days for 6 months): 0 Copies of the bacteria by reaction
- Absolute concentration of the bacterium after 6 months of treatment ([1]; 40 μM, spray every 15 days for 6 months): 0 Copies of the bacteria by reaction
- Absolute concentration of the bacterium after 6 months of treatment ([1]; 60 μM, spray every 15 days for 6 months): 0 Copies of the bacteria by reaction
- bacteria levels ([1]; concentrations of 0.01 and up to 60 μM, spray every 15 days for 6 months): drastically reduced
- significant reduction in levels of bacteria, from [1, 9]: second month
- undetectable levels of bacteria reached from month [1, 9]: 4 month
- significant reduction in bacteria levels, from [6]: third months
- undetectable levels of bacteria reached from months [6]: 8 months
- presence of bacteria in leaves by electron microscopy [7]: presence of bacteria was not observed
- protection of citrus plants without HLB against infection [8]: protect them against infection from bacteria
- effect on incidence of disease [2]: marked effect in reducing the incidence of diseases
- percentage of mortality due to disease [2]: 9 percentage
- effect on incidence of disease [3]: marked effect in reducing the incidence of diseases
- percentage of mortality due to disease [3]: 11 percentage
